From patent US9556183B2, “Substituted pyrazolylpyrazole derivative and use of same as herbicide” (KYOYU AGRI CO., LTD., priority 2013, dated 2017)

Columns and labels:
Format in all cases: in vivo
Echinochloa crus-galli = assay: Paddy herbicidal activity test; settings: irrigated paddy pot, treated at 3.5 leaf stage of Echinochloa crus-galli, 30 days
Procedure: (§1) Rice paddy soil was filled into a 1/10000 are pot followed by the addition of suitable amounts of water and chemical fertilizer, kneading, seeding with Echinochloa crus-galli, Monochoria vaginalis and Scirpus juncoides and maintaining in an irrigated state at a water depth of 3 cm. Wettable powder of Target Compound (I) shown in Table 1 prepared in compliance with the preparation examples were diluted with a suitable amount of water, rice plants in the 2.0 leaf stage were transplanted during 3.5 leaf stage of Echinochloa crus-galli, and treated by dropping in chemical in the prescribed amount per are using a pipette. After treating for 30 days in a glass greenhouse at an average atmospheric temperature of 30° C., the herbicidal efficacy thereof was investigated. Evaluation of herbicidal efficacy was carried out by comparing growth inhibition rate (%) with an untreated group, while evaluation of phytotoxicity was carried out by comparing growth inhibition rate (%) with the state of a complete eradication group, and were evaluated at 11 levels indicated below. [table]

Monochoria vaginalis = assay: Paddy herbicidal activity test; settings: irrigated paddy pot, 30 days
Procedure: as §1

Scirpus juncoides = assay: Paddy herbicidal activity test; settings: irrigated paddy pot, 30 days
Procedure: as §1

Rice plants = assay: Paddy herbicidal activity test, phytotoxicity to transplanted rice; settings: rice transplanted at 2.0 leaf stage, 30 days
Procedure: as §1

Amaranthus retroflexus [1] = assay: Farming soil treatment test; settings: soil surface spray prior to weed growth, 30 days
Procedure: (§2) Evaluation of herbicidal efficacy was carried out by comparing growth inhibition rate (%) with an untreated group, while evaluation of phytotoxicity was carried out by comparing growth inhibition rate (%) with the state of a complete eradication group, and were evaluated at 11 levels indicated below. [table] Field soil was filled into a 1/6000 are pot followed by seeding with Digitaria ciliaris, Chenopodium album and Amaranthus retroflexus and covering with soil. Wettable powder of compounds of formula (I) shown in Table 1 prepared in compliance with the preparation examples were diluted with water to the prescribed amount of chemical and uniformly sprayed onto each soil surface layer using 10 liters of sprayed water per are prior to weed growth following seeding. After treating for 30 days in a glass greenhouse at an average atmospheric temperature of 30° C., the herbicidal efficacy thereof was investigated. Evaluation of herbicidal efficacy was carried out in the same manner as the above-mentioned Test Example 1.

Chenopodium album [2] = assay: Farming soil treatment test; settings: soil surface spray prior to weed growth, 30 days
Procedure: as §2

Digitaria ciliaris [3] = assay: Farming soil treatment test; settings: soil surface spray prior to weed growth, 30 days
Procedure: as §2

Amaranthus retroflexus [4] = assay: Weed foliar treatment test; settings: foliar spray, 3 weeks
Procedure: (§3) Evaluation of herbicidal efficacy was carried out by comparing growth inhibition rate (%) with an untreated group, while evaluation of phytotoxicity was carried out by comparing growth inhibition rate (%) with the state of a complete eradication group, and were evaluated at 11 levels indicated below. [table] Soil was filled into a 1/6000 are pot followed by seeding with Digitaria ciliaris, Chenopodium album and Amaranthus retroflexus, covering with soil, and cultivating in a glass greenhouse at an average atmospheric temperature of 25° C. Wettable powder of Target Compound (I) shown in Table 1 prepared in compliance with the preparation examples were diluted with water to the prescribed amount of chemical and uniformly sprayed onto the weeds using 15 liters of sprayed water per are when Digitaria ciliaris had grown to the 1.0 to 2.0 leaf stage. After treating for 3 weeks in a glass greenhouse at an average atmospheric temperature of 25° C., the herbicidal efficacy thereof was investigated, Evaluation of herbicidal efficacy was carried out in the same manner as the above-mentioned Test Example 1.

Chenopodium album [5] = assay: Weed foliar treatment test; settings: foliar spray, 3 weeks
Procedure: as §3

Digitaria ciliaris [6] = assay: Weed foliar treatment test; settings: foliar spray at 1.0 to 2.0 leaf stage of Digitaria ciliaris, 3 weeks
Procedure: as §3

Structure (SMILES): CC1CC1CNc1c(C#N)cnn1-c1nn2c(c1Cl)CCCC2 (stereo not shown) [Compound 12]
- herbicidal efficacy (growth inhibition rate level) Echinochloa crus-galli (Echinochloa crus-galli; 1g a.i./10a): 9 (9: 90% to less than 100%)
- herbicidal efficacy (growth inhibition rate level) Echinochloa crus-galli (Echinochloa crus-galli; 5g a.i./10a): 10 (10: 100%)
- herbicidal efficacy (growth inhibition rate level) Monochoria vaginalis (Monochoria vaginalis; 1g a.i./10a): 8 (8: 80% to less than 90%)
- herbicidal efficacy (growth inhibition rate level) Monochoria vaginalis (Monochoria vaginalis; 5g a.i./10a): 9 (9: 90% to less than 100%)
- herbicidal efficacy (growth inhibition rate level) Scirpus juncoides (Scirpus juncoides; 1g a.i./10a): 9 (9: 90% to less than 100%)
- herbicidal efficacy (growth inhibition rate level) Scirpus juncoides (Scirpus juncoides; 5g a.i./10a): 9 (9: 90% to less than 100%)
- phytotoxicity (growth inhibition rate level) Rice plants (Rice plants; 1g a.i./10a): 0 (0 (exponent): 0% to less than 10% (growth inhibition rate))
- phytotoxicity (growth inhibition rate level) Rice plants (Rice plants; 5g a.i./10a): 1 (1: 10% to less than 20%)
- herbicidal efficacy (growth inhibition rate level) Amaranthus retroflexus (Amaranthus retroflexus [1]; 5g a.i./10a): 10 (10: 100%)
- herbicidal efficacy (growth inhibition rate level) Amaranthus retroflexus (Amaranthus retroflexus [1]; 10g a.i./10a): 10 (10: 100%)
- herbicidal efficacy (growth inhibition rate level) Chenopodium album (Chenopodium album [2]; 5g a.i./10a): 10 (10: 100%)
- herbicidal efficacy (growth inhibition rate level) Chenopodium album (Chenopodium album [2]; 10g a.i./10a): 10 (10: 100%)
- herbicidal efficacy (growth inhibition rate level) Digitaria ciliaris (Digitaria ciliaris [3]; 5g a.i./10a): 10 (10: 100%)
- herbicidal efficacy (growth inhibition rate level) Digitaria ciliaris (Digitaria ciliaris [3]; 10g a.i./10a): 10 (10: 100%)
- herbicidal efficacy (growth inhibition rate level) Amaranthus retroflexus (Amaranthus retroflexus [4]; 5g a.i./10a): 10 (10: 100%)
- herbicidal efficacy (growth inhibition rate level) Amaranthus retroflexus (Amaranthus retroflexus [4]; 10g a.i./10a): 10 (10: 100%)
- herbicidal efficacy (growth inhibition rate level) Chenopodium album (Chenopodium album [5]; 5g a.i./10a): 10 (10: 100%)
- herbicidal efficacy (growth inhibition rate level) Chenopodium album (Chenopodium album [5]; 10g a.i./10a): 10 (10: 100%)
- herbicidal efficacy (growth inhibition rate level) Digitaria ciliaris (Digitaria ciliaris [6]; 5g a.i./10a): 10 (10: 100%)
- herbicidal efficacy (growth inhibition rate level) Digitaria ciliaris (Digitaria ciliaris [6]; 10g a.i./10a): 10 (10: 100%)

Structure (SMILES): N#Cc1cnn(-c2nn3c(c2Br)CCCC3)c1NCC1CC1 [Compound 147]
- herbicidal efficacy (growth inhibition rate level) Echinochloa crus-galli (Echinochloa crus-galli; 1g a.i./10a): 8 (8: 80% to less than 90%)
- herbicidal efficacy (growth inhibition rate level) Echinochloa crus-galli (Echinochloa crus-galli; 5g a.i./10a): 9 (9: 90% to less than 100%)
- herbicidal efficacy (growth inhibition rate level) Monochoria vaginalis (Monochoria vaginalis; 1g a.i./10a): 7 (7: 70% to less than 80%)
- herbicidal efficacy (growth inhibition rate level) Monochoria vaginalis (Monochoria vaginalis; 5g a.i./10a): 8 (8: 80% to less than 90%)
- herbicidal efficacy (growth inhibition rate level) Scirpus juncoides (Scirpus juncoides; 1g a.i./10a): 7 (7: 70% to less than 80%)
- herbicidal efficacy (growth inhibition rate level) Scirpus juncoides (Scirpus juncoides; 5g a.i./10a): 9 (9: 90% to less than 100%)
- phytotoxicity (growth inhibition rate level) Rice plants (Rice plants; 1g a.i./10a): 0 (0 (exponent): 0% to less than 10% (growth inhibition rate))
- phytotoxicity (growth inhibition rate level) Rice plants (Rice plants; 5g a.i./10a): 0 (0 (exponent): 0% to less than 10% (growth inhibition rate))
- herbicidal efficacy (growth inhibition rate level) Amaranthus retroflexus (Amaranthus retroflexus [1]; 5g a.i./10a): 10 (10: 100%)
- herbicidal efficacy (growth inhibition rate level) Amaranthus retroflexus (Amaranthus retroflexus [1]; 10g a.i./10a): 10 (10: 100%)
- herbicidal efficacy (growth inhibition rate level) Chenopodium album (Chenopodium album [2]; 5g a.i./10a): 10 (10: 100%)
- herbicidal efficacy (growth inhibition rate level) Chenopodium album (Chenopodium album [2]; 10g a.i./10a): 10 (10: 100%)
- herbicidal efficacy (growth inhibition rate level) Digitaria ciliaris (Digitaria ciliaris [3]; 5g a.i./10a): 10 (10: 100%)
- herbicidal efficacy (growth inhibition rate level) Digitaria ciliaris (Digitaria ciliaris [3]; 10g a.i./10a): 10 (10: 100%)
- herbicidal efficacy (growth inhibition rate level) Amaranthus retroflexus (Amaranthus retroflexus [4]; 5g a.i./10a): 10 (10: 100%)
- herbicidal efficacy (growth inhibition rate level) Amaranthus retroflexus (Amaranthus retroflexus [4]; 10g a.i./10a): 10 (10: 100%)
- herbicidal efficacy (growth inhibition rate level) Chenopodium album (Chenopodium album [5]; 5g a.i./10a): 10 (10: 100%)
- herbicidal efficacy (growth inhibition rate level) Chenopodium album (Chenopodium album [5]; 10g a.i./10a): 10 (10: 100%)
- herbicidal efficacy (growth inhibition rate level) Digitaria ciliaris (Digitaria ciliaris [6]; 5g a.i./10a): 10 (10: 100%)
- herbicidal efficacy (growth inhibition rate level) Digitaria ciliaris (Digitaria ciliaris [6]; 10g a.i./10a): 10 (10: 100%)
